Test results: US6939951B1, “Refolding of membrane proteins” (M-Phasys GmbH, priority 1999, dated 2005)

Columns and labels:
[1] = system: AO adenosine receptor; assay: adenosine binding to refolded receptor by flow dialysis; design: species or system shark Squalus acanthias; conditions: refolded receptor in Alkyl(C16)phosphorylcholine/lipid micelles, after 48 hours at 4° C.
From the text: The cDNA of one of the following receptors is, in-frame, inserted into the vector pGEX2a-c-His: AO adenosine receptor from the shark Squalus acanthias, human beta-2-adrenergic receptor, human neuropeptide YY1 receptor, human neuropeptide YY2 receptor, human melanocortine-1 receptor, human oxytocin receptor. This vector contains downstream of the Tac-promotor the sequence encoding glutathione-S-transferase and a subsequent thrombin cleavage site, followed by a polylinker sequence and, finally, six histidine codons and a stop codon.
2 ml of 3% sarcosyl are resuspended in PBS and stored on ice. 2 ml of inclusion bodies obtained in example 2 are added and mixed and treated for one minute with sonication. Immediately afterwards, 16 ml of 0.1% detergent stock solution in PBS are added.
Thereafter, a dialysis against 2 l of PBS is performed for four hours, as well as adding of 1 mM of GSH/0.1 mM GSSG from a 100× stock solution in water.
The solution is then stored for 48 hours at 4° C., whereupon, by flow dialysis, the adenosine binding was detectable, i.e. the receptor was present in native form.

[2] = cmc-value (critical micellar concentration) of detergents, own measurements of the inventors; format: physicochemical; conditions: reflects solubility of detergent in water
From the text: The inventors of the submitted application have, namely, recognized that the low yield and the lacking reproducibility in the known methods is to be assigned to the second detergent. […] Further, it has to be taken care that the second detergent, in its final concentration, is above the critical micellar concentration. […] Above the cmc-value, the concentration of solved detergent-monomers is constant.
According to own measurements of the inventors, the cmc-values for alkyl-phosphorylcholine with an alkyl rest of C12, C13, C14 or C16 are 500, 150, 50 or 5 μM.

SMILES	adenosine binding [1]	cmc-value [2]
Nc1ncnc2c1ncn2[C@@H]1O[C@H](CO)[C@@H](O)[C@H]1O [adenosine]	detectable	–
CCCCCCCCCCCCOP(=O)([O-])OCC[N+](C)(C)C [alkyl-phosphorylcholine C12]	–	500 µM
CCCCCCCCCCCCCOP(=O)([O-])OCC[N+](C)(C)C [alkyl-phosphorylcholine C13]	–	150 µM

The remaining lines, values ahead:

adenosine binding [1]	cmc-value [2]	SMILES
–	50 µM	CCCCCCCCCCCCCCOP(=O)([O-])OCC[N+](C)(C)C [alkyl-phosphorylcholine C14]
–	5 µM	CCCCCCCCCCCCCCCCOP(=O)([O-])OCC[N+](C)(C)C [alkyl-phosphorylcholine C16]
